Publication PMC9851200, “Multiparameter phenotypic screening for endogenous TFEB and TFE3 translocation identifies novel chemical series modulating lysosome function” (Autophagy, 2022)

Experiments:
Format in all cases: binding
[1] = target: T1, kinases (KINOMEscan panel) (Homo sapiens, UniProt Q8IWQ3); settings: kinase BRSK2; NEW KINOMEscan
T1 sequence (Q8IWQ3 1-736): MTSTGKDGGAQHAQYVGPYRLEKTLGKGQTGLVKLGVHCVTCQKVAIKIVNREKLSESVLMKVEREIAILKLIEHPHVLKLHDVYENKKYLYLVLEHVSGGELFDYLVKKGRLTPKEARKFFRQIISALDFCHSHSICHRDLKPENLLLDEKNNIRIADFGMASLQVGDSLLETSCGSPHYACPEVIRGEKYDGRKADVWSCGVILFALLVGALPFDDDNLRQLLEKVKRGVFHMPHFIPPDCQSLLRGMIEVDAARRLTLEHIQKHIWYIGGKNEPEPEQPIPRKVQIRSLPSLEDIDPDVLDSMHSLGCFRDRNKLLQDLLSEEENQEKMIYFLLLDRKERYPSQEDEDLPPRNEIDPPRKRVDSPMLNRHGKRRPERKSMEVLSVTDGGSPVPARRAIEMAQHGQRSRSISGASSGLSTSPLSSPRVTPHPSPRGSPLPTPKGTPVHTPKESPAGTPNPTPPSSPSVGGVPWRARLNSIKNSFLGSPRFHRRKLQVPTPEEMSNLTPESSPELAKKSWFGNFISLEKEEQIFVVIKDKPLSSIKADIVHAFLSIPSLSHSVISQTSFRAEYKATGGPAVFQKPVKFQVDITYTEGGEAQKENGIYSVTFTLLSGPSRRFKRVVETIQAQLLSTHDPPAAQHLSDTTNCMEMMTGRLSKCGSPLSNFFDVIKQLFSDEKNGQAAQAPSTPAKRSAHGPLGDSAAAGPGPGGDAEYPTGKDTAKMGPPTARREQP

[2] = target: T2, kinases (KINOMEscan panel) (Homo sapiens, UniProt P33981); settings: NEW KINOMEscan
T2 sequence (P33981 1-857): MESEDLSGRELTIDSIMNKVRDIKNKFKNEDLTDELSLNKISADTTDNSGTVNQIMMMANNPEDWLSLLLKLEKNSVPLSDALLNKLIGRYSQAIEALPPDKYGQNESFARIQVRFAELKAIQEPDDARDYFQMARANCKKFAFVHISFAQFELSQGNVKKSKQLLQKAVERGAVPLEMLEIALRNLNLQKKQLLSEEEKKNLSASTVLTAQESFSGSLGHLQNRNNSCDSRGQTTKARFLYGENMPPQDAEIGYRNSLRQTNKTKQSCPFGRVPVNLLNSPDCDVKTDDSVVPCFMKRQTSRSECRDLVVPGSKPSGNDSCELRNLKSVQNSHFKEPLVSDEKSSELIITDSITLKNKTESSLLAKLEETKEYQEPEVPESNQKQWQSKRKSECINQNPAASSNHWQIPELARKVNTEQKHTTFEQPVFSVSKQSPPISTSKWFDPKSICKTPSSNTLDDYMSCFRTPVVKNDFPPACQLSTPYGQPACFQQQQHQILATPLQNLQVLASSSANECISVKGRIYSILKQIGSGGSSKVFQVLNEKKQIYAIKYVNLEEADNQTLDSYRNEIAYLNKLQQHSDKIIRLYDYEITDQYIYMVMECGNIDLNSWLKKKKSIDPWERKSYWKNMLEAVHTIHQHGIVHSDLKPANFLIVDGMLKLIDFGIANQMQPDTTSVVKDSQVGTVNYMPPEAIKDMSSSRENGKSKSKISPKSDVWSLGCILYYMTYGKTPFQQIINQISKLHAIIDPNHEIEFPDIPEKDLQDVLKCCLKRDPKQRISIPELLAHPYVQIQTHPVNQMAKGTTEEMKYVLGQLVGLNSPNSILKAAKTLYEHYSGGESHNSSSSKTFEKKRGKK

[3] = target: kinases (KINOMEscan panel) (Homo sapiens, UniProt P42685); settings: kinase FRK; NEW KINOMEscan
[4] = target: T3, kinases (KINOMEscan panel) (Homo sapiens, UniProt P54760); settings: EPHB4; NEW KINOMEscan
T3 sequence (P54760 16-987): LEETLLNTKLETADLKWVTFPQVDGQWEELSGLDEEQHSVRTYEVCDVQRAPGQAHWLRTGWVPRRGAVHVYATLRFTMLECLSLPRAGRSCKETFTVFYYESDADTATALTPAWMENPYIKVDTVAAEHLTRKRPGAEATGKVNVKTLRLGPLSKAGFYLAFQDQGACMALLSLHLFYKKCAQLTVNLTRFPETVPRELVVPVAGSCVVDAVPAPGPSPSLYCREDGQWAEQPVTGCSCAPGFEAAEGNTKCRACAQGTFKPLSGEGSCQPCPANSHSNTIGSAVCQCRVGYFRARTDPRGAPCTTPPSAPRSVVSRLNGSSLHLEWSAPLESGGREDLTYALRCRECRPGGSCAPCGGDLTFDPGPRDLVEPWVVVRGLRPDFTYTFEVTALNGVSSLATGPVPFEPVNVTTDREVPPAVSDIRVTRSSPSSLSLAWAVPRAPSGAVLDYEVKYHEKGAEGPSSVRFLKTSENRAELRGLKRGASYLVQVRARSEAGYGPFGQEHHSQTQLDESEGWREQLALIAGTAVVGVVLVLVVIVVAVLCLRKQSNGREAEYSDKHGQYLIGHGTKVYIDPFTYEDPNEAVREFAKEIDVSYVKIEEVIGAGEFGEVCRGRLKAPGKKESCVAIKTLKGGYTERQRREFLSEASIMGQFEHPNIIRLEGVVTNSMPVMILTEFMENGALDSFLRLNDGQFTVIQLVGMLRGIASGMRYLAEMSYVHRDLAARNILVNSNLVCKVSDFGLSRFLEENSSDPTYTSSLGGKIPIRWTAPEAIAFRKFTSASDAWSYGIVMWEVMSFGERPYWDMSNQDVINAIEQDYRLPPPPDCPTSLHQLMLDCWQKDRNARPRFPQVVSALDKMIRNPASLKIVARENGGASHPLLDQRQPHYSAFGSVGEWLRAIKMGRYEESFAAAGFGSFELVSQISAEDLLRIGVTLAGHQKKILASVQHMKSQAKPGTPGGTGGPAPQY

[5] = target: kinases (KINOMEscan panel) (Homo sapiens, UniProt P22455); settings: NEW KINOMEscan
[6] = target: kinases (KINOMEscan panel) (Homo sapiens, UniProt P41240); settings: kinase CSK; NEW KINOMEscan
[7] = target: kinases (KINOMEscan panel) (Homo sapiens, UniProt P37023); settings: ACVRL1; NEW KINOMEscan
Chain of kinases (KINOMEscan panel) (Homo sapiens, UniProt P37023) (P37023 22-503): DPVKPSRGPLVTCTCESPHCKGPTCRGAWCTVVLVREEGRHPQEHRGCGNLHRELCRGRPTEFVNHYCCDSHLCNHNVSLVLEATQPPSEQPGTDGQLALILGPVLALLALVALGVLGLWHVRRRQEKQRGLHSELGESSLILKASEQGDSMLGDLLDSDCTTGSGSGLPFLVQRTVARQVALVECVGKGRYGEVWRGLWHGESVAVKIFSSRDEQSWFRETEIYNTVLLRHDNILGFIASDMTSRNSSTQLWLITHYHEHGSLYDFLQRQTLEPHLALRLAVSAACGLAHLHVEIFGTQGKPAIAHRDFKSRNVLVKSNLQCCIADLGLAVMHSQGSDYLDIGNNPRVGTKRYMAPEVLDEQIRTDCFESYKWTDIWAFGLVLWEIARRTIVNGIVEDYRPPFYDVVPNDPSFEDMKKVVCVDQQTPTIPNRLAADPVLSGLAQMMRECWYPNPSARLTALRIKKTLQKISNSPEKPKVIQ

Chain of kinases (KINOMEscan panel) (Homo sapiens, UniProt P22455) (P22455 22-802): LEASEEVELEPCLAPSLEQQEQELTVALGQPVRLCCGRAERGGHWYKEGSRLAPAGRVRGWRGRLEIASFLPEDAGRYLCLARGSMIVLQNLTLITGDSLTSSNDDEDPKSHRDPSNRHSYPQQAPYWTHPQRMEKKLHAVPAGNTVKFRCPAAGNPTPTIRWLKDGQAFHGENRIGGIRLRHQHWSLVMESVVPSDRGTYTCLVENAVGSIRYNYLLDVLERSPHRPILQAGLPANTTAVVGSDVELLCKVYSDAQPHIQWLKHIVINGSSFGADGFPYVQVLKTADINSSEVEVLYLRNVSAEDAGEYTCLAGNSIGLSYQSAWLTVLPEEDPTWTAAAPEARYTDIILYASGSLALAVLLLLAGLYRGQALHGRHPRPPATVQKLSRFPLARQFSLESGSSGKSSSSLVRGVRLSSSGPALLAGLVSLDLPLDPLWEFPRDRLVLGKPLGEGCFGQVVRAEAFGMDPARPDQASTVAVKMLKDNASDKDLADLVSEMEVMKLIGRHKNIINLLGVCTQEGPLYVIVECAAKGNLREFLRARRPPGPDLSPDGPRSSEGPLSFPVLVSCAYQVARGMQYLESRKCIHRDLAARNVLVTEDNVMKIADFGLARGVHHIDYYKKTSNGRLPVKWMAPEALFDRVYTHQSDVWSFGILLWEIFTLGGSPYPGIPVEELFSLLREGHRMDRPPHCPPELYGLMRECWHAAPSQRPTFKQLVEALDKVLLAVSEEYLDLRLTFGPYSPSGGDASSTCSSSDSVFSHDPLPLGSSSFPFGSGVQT
Chain of kinases (KINOMEscan panel) (Homo sapiens, UniProt P42685) (P42685 whole entry): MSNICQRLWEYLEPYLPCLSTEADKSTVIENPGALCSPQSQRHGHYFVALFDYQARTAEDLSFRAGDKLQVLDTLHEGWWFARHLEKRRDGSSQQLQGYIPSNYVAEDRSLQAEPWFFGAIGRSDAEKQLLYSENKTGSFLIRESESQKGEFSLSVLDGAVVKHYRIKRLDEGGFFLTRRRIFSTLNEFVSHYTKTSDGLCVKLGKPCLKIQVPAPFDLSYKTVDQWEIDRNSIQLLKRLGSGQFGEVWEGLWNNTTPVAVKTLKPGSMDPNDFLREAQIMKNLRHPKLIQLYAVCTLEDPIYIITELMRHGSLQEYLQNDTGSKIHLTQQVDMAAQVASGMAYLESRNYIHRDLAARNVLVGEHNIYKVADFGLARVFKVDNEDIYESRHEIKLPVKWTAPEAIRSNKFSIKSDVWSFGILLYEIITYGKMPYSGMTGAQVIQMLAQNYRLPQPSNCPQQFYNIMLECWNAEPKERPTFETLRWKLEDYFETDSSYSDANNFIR
Chain of kinases (KINOMEscan panel) (Homo sapiens, UniProt P41240) (P41240 whole entry): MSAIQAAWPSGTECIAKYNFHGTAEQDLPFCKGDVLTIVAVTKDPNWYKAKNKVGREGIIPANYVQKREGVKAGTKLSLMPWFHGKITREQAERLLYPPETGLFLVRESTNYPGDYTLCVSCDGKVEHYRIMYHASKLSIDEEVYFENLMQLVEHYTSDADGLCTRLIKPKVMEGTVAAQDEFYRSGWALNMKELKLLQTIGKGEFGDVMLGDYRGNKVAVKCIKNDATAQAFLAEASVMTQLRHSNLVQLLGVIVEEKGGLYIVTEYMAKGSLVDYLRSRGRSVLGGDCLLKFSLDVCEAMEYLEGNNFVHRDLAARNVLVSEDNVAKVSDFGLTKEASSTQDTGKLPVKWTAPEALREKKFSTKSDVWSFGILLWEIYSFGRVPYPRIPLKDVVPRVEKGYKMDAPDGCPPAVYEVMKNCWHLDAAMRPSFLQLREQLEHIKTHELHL

Structure (SMILES) | KINOMEscan BRSK2 [1] | KINOMEscan TTK [2] | KINOMEscan FRK [3] | KINOMEscan EPHB4 [4] | KINOMEscan FGFR4 [5] | KINOMEscan CSK [6] | KINOMEscan ACVRL1 [7]
Cc1cccc(-c2nc(Nc3ccc4nn(C)cc4c3)c3ccccc3n2)n1 [NK167] | 9 | 17 | 0 | 0 | 16 | 6 | 4
Cc1cccc(-c2nc(N(C)c3ccc4ncsc4c3)c3ccccc3n2)n1 [NK-161] | 12 | 26 | 0 | 0 | 19 | 0 | 9
